Where “and” joins values, the source holds several entries; their conditions need not be identical. Equal entries are not always repeated.
Assays:
velvetleaf = assay: Post-emergence application in velvetleaf under greenhouse conditions (Example 8); type: in vivo; conditions: velvetleaf, 24 days
From the text: The following testing protocol was employed to evaluate the post-emergence application of herbicides and herbicide combinations as described in the following examples unless otherwise specified. The weed species to be treated were planted in 3.5 inch pots containing redi-earth potting mix and grown under greenhouse conditions. When the weed species reached a height of about four inches, herbicide was applied at the specified application rate using a track sprayer with a flat even nozzle type, 9501E nozzle size, and spray pressure of 165 kPa. After the application of the herbicide(s), the pots were only sub-irrigated as needed. Throughout the test period, temperature was maintained from about 20° C. to about 30° C. and relative humidity was maintained at about 30%. The plants were rated visually and percentage of weed control was determined for each treatment at 15 to 21 days after herbicide application.
Post-emergence application of several herbicides and herbicide combinations was evaluated in velvetleaf under greenhouse conditions. The plants were rated visually and percentage of weed control was determined at 24 days after herbicide application. The herbicides and herbicide combinations evaluated are listed in Table 8-A below together with the corresponding percent control data. The data represent an average value (n=6).
The results of the analysis are reported below in Table 8-B (glyphosate+dicamba), Table 8-C(glyphosate+metribuzin), and Table 8-D (dicamba+metribuzin).

[1] = system: broad-leaf and grass weed species; assay: Field testing of pre-emergence application of dicamba and acetochlor in Argentina and/or South Africa (Example 10); conditions: for percent control X (ACETOCHLOR ALONE): early rating (14 day); for X (acetochlor alone): late rating (28 day);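 for all read-outs here: percent weed control in field trials, rated at 14 days (early) and 28 days (late) after treatment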

In the case of `CSc1nnc(C(C)(C)C)c(=O)n1N` [Metribuzin, 4-amino-6-(1,1-dimethylethyl)-3-(methylthio)-1,2,4-triazin-5(4H)-one], the “PERCENT CONTROL (ACTUAL)” value (velvetleaf; Table 8-C, dose 420 g/ha) is reported as 22.0%, the “PERCENT CONTROL (ACTUAL)” value (velvetleaf; Table 8-C, dose 840 g/ha) is reported as 68.0% and the “PERCENT CONTROL (ACTUAL)” value (velvetleaf; Table 8-D, dose 420 g/ha) is reported as 22.0%. For the same compound, the “PERCENT CONTROL (ACTUAL)” value (velvetleaf; Table 8-D, dose 840 g/ha) was 68.0%.

In the case of `CCOCN(C(=O)CCl)c1c(C)cccc1CC` [Acetochlor, 2-chloro-N-(ethoxymethyl)-6′-ethyl-o-acetotoluidide], the “percent control X (ACETOCHLOR ALONE)” value ([1]; AMADE, 630 g/ha) is reported as 96.7%, the “X (acetochlor alone)” value ([1]; AMADE, 630 g/ha) is reported as 57.1% and the “percent control X (ACETOCHLOR ALONE)” value ([1]; AMADE, 1260 g/ha) is reported as 99.4%. For the same compound, the “X (acetochlor alone)” value ([1]; AMADE, 1260 g/ha) was 69.4%, the “percent control X (ACETOCHLOR ALONE)” value ([1]; AMAQU, 630 g/ha) was 64.3% and the “X (acetochlor alone)” value ([1]; AMAQU, 630 g/ha) was 48.8%. The “percent control X (ACETOCHLOR ALONE)” value ([1]; AMAQU, 1260 g/ha) was 81.4%, the “X (acetochlor alone)” value ([1]; AMAQU, 1260 g/ha) was 70.0% and the “percent control X (ACETOCHLOR ALONE)” value ([1]; ANOCR, 630 g/ha) was 47.0%. For the same compound, the “X (acetochlor alone)” value ([1]; ANOCR, 630 g/ha) was 31.6%, the “percent control X (ACETOCHLOR ALONE)” value ([1]; ANOCR, 1260 g/ha) was 59.5% and the “X (acetochlor alone)” value ([1]; ANOCR, 1260 g/ha) was 45.2%. The “percent control X (ACETOCHLOR ALONE)” value ([1]; BIDPI, 630 g/ha) was 17.5%, the “X (acetochlor alone)” value ([1]; BIDPI, 630 g/ha) was 0.0% and the “percent control X (ACETOCHLOR ALONE)” value ([1]; BIDPI, 1260 g/ha) was 47.5%. The “X (acetochlor alone)” value ([1]; BIDPI, 1260 g/ha) was 27.5%, the “X (acetochlor alone)” value ([1]; BRAER, 630 g/ha) was 47.5% and the “X (acetochlor alone)” value ([1]; BRAER, 1260 g/ha) was 65.0%. For the same compound, the “percent control X (ACETOCHLOR ALONE)” value ([1]; CHEAL, 630 g/ha) was 46.7%, the “X (acetochlor alone)” value ([1]; CHEAL, 630 g/ha) was 80.3% and the “percent control X (ACETOCHLOR ALONE)” value ([1]; CHEAL, 1260 g/ha) was 50.0%. The “X (acetochlor alone)” value ([1]; CHEAL, 1260 g/ha) was 77.0%, the “percent control X (ACETOCHLOR ALONE)” value ([1]; CHRGA, 630 g/ha) was 0.0% and the “X (acetochlor alone)” value ([1]; CHRGA, 630 g/ha) was 0.0%. The “percent control X (ACETOCHLOR ALONE)” value ([1]; CHRGA, 1260 g/ha) was 86.0%, the “X (acetochlor alone)” value ([1]; CHRGA, 1260 g/ha) was 10.0% and the “percent control X (ACETOCHLOR ALONE)” value ([1]; COMBE, 630 g/ha) was 0.0%. The “X (acetochlor alone)” value ([1]; COMBE, 630 g/ha) was 0.0%, the “percent control X (ACETOCHLOR ALONE)” value ([1]; COMBE, 1260 g/ha) was 12.5% and the “X (acetochlor alone)” value ([1]; COMBE, 1260 g/ha) was 0.0%. The “percent control X (ACETOCHLOR ALONE)” value ([1]; CONFA, 630 g/ha) was 10.0%, the “X (acetochlor alone)” value ([1]; CONFA, 630 g/ha) was 0.0% and the “percent control X (ACETOCHLOR ALONE)” value ([1]; CONFA, 1260 g/ha) was 77.5%. For the same compound, the “X (acetochlor alone)” value ([1]; CONFA, 1260 g/ha) was 12.5%, the “percent control X (ACETOCHLOR ALONE)” value ([1]; CYNDA, 630 g/ha) was 30.0% and the “percent control X (ACETOCHLOR ALONE)” value ([1]; CYNDA, 1260 g/ha) was 49.2%. For the same compound, the “percent control X (ACETOCHLOR ALONE)” value ([1]; CYPES, 630 g/ha) was 0.0%, the “X (acetochlor alone)” value ([1]; CYPES, 630 g/ha) was 26.3% and the “percent control X (ACETOCHLOR ALONE)” value ([1]; CYPES, 1260 g/ha) was 0.0%. For the same compound, the “X (acetochlor alone)” value ([1]; CYPES, 1260 g/ha) was 33.3%, the “percent control X (ACETOCHLOR ALONE)” value ([1]; CYPRO, 630 g/ha) was 44.1% and the “X (acetochlor alone)” value ([1]; CYPRO, 630 g/ha) was 17.1%. For the same compound, the “percent control X (ACETOCHLOR ALONE)” value ([1]; CYPRO, 1260 g/ha) was 51.0%, the “X (acetochlor alone)” value ([1]; CYPRO, 1260 g/ha) was 25.8% and the “percent control X (ACETOCHLOR ALONE)” value ([1]; DATFE, 630 g/ha) was 62.2%. For the same compound, the “X (acetochlor alone)” value ([1]; DATFE, 630 g/ha) was 44.5%, the “percent control X (ACETOCHLOR ALONE)” value ([1]; DATFE, 1260 g/ha) was 72.3% and the “X (acetochlor alone)” value ([1]; DATFE, 1260 g/ha) was 58.5%. For the same compound, the “percent control X (ACETOCHLOR ALONE)” value ([1]; DIGER, 630 g/ha) was 0.0%, the “X (acetochlor alone)” value ([1]; DIGER, 630 g/ha) was 0.0% and the “percent control X (ACETOCHLOR ALONE)” value ([1]; DIGER, 1260 g/ha) was 86.0%. For the same compound, the “X (acetochlor alone)” value ([1]; DIGER, 1260 g/ha) was 12.5% and 12.4%, the “percent control X (ACETOCHLOR ALONE)” value ([1]; DIGSA, 630 g/ha) was 63.1% and the “X (acetochlor alone)” value ([1]; DIGSA, 630 g/ha) was 51.3%. The “percent control X (ACETOCHLOR ALONE)” value ([1]; DIGSA, 1260 g/ha) was 72.1%, the “X (acetochlor alone)” value ([1]; DIGSA, 1260 g/ha) was 59.2% and the “X (acetochlor alone)” value ([1]; DTTAE, 630 g/ha) was 0.0%. The “X (acetochlor alone)” value ([1]; DTTAE, 1260 g/ha) was 10.0%, the “percent control X (ACETOCHLOR ALONE)” value ([1]; ELEAF, 630 g/ha) was 88.3% and the “X (acetochlor alone)” value ([1]; ELEAF, 630 g/ha) was 20.3%. The “percent control X (ACETOCHLOR ALONE)” value ([1]; ELEAF, 1260 g/ha) was 85.9%, the “X (acetochlor alone)” value ([1]; ELEAF, 1260 g/ha) was 28.3% and the “percent control X (ACETOCHLOR ALONE)” value ([1]; HIBCA, 630 g/ha) was 55.0%. The “X (acetochlor alone)” value ([1]; HIBCA, 630 g/ha) was 37.5%, the “percent control X (ACETOCHLOR ALONE)” value ([1]; HIBCA, 1260 g/ha) was 89.5% and the “X (acetochlor alone)” value ([1]; HIBCA, 1260 g/ha) was 96.5%. For the same compound, the “X (acetochlor alone)” value ([1]; IPOBA, 630 g/ha) was 0.0%, the “X (acetochlor alone)” value ([1]; IPOBA, 1260 g/ha) was 0.0% and the “percent control X (ACETOCHLOR ALONE)” value ([1]; IPOPD, 630 g/ha) was 27.5%. For the same compound, the “X (acetochlor alone)” value ([1]; IPOPD, 630 g/ha) was 21.2%, the “percent control X (ACETOCHLOR ALONE)” value ([1]; IPOPD, 1260 g/ha) was 71.3% and the “X (acetochlor alone)” value ([1]; IPOPD, 1260 g/ha) was 63.0%. For the same compound, the “percent control X (ACETOCHLOR ALONE)” value ([1]; OVERALL, 630 g/ha) was 49.8%, the “percent control X (ACETOCHLOR ALONE)” value ([1]; OVERALL, 1260 g/ha) was 64.2% and the “X (acetochlor alone)” value ([1]; Overall, 630 g/ha) was 37.8%. The “X (acetochlor alone)” value ([1]; Overall, 1260 g/ha) was 50.8%, the “percent control X (ACETOCHLOR ALONE)” value ([1]; PERCENT WEED FREE, 1260 g/ha) was 75.5% and the “percent control X (ACETOCHLOR ALONE)” value ([1]; POROL, 630 g/ha) was 38.6%. The “X (acetochlor alone)” value ([1]; POROL, 630 g/ha) was 26.7%, the “percent control X (ACETOCHLOR ALONE)” value ([1]; POROL, 1260 g/ha) was 47.5% and the “X (acetochlor alone)” value ([1]; POROL, 1260 g/ha) was 37.8%. The “X (acetochlor alone)” value ([1]; Percent Weed Free, 630 g/ha) was 53.2%, the “X (acetochlor alone)” value ([1]; Percent Weed Free, 1260 g/ha) was 63.8% and the “percent control X (ACETOCHLOR ALONE)” value ([1]; RCHBR, 630 g/ha) was 57.0%. The “X (acetochlor alone)” value ([1]; RCHBR, 630 g/ha) was 22.5%, the “percent control X (ACETOCHLOR ALONE)” value ([1]; RCHBR, 1260 g/ha) was 87.7% and the “X (acetochlor alone)” value ([1]; RCHBR, 1260 g/ha) was 67.4%. The “percent control X (ACETOCHLOR ALONE)” value ([1]; TAGMI, 630 g/ha) was 89.9%, the “X (acetochlor alone)” value ([1]; TAGMI, 630 g/ha) was 45.8% and the “percent control X (ACETOCHLOR ALONE)” value ([1]; TAGMI, 1260 g/ha) was 95.3%. For the same compound, the “X (acetochlor alone)” value ([1]; TAGMI, 1260 g/ha) was 65.0%, the “percent control X (ACETOCHLOR ALONE)” value ([1]; XANST, 630 g/ha) was 59.7% and the “X (acetochlor alone)” value ([1]; XANST, 630 g/ha) was 33.7%. For the same compound, the “percent control X (ACETOCHLOR ALONE)” value ([1]; XANST, 1260 g/ha) was 72.6% and the “X (acetochlor alone)” value ([1]; XANST, 1260 g/ha) was 37.7%.

Source: patent US20150313228A1, “SYNERGISTIC HERBICIDAL COMBINATIONS AND METHODS OF USE” (priority 2012, published 2015)
